Read-outs that look alike come from different tables or passages of the source.
Experiments:
[1] = target: human recombinant 5-HT2C receptor (Homo sapiens (Human), UniProt P28335); test: 5-HT2C receptor binding inhibition test ([3H]-Mesulergine); details: Jump-In HEK cell membrane, [3H]-Mesulergine
Method: (§1) (Each Experimental Condition)
Cell membrane: Jump-In HEK cell membrane (expressing human recombinant 5-HT2C receptor)
(§2) Assay buffer: Tris-HCl 50 mmol/L (pH 7.4) containing NaCl 120 mmol/L, MgCl2.6H2O 1 mmol/L, KCl 5 mmol/L, 0.1% BSA, and CaCl2 2 mmol/L
Radioactive ligand: [^3H]-Mesulergine around Kd value calculated by the following method
(§3) Non-specific ligand: Serotonin HCl
The Kd value was calculated when the lot of cell membrane was changed. In advance, 0.5 μL of a 1 mmol/L compound for non-specific binding calculation dissolved in DMSO or DMSO was dispensed into a microplate, and the cell membrane was diluted with an Assay buffer. The radioactive ligand solution was serially diluted and the count was confirmed with a liquid scintillator. Assay buffer containing diluted cell membrane was dispensed into a microplate at 50 μL/well. Then, the radioactive ligand solution was dispensed into a microplate at 50 μL/well, and the plate was sealed. It was allowed to stand at room temperature (25° C.) for 1.5 hours. During this period, 50 mmol/L Tris-HCl (pH 7.4) was dispensed into a GF/B UniFilter plate at 50 μL/well and allowed to stand at […] for 1 hour or longer. After that, filtration was performed with Cell harvester (PerkinElmer). The radioactive ligand solution was dispensed into an empty well of the GF/B UniFilter plate at 10 μL/well. After the GF/B UniFilter plate was dried at room temperature, MicroScinti 20 was dispensed into the GF/B UniFilter plate at 50 μL/well, and the plate was sealed. The GF/B UniFilter plate was allowed to stand overnight at room temperature. […] The Saturation curve was drawn from the measured value, and the Kd value was calculated from the slope of the Scatchard Plot.
(§4) (Binding Test of the Compound According to the Present Invention)
In advance, 0.5 μL of the compound solution dissolved in DMSO was dispensed into a microplate, and the cell membrane and the hot ligand were diluted with Assay buffer, respectively. Then, the Assay buffer containing the diluted cell membrane was dispensed into a microplate at 50 μL/well. Then, the radioactive ligand solution was dispensed into a microplate at 50 μL/well, and the plate was sealed. Then, it was allowed to stand at 37° C. for 2 hours. During this period, 50 mmol/L Tris-HCl (pH 7.4) was dispensed into a GF/B UniFilter plate at 50 μL/well and allowed to stand at 4° C. for 1 hour or longer. After that, filtration was performed with Cell harvester (PerkinElmer). After the GF/B UniFilter plate was dried at room temperature, MicroScinti 20 was dispensed into the GF/B UniFilter plate at 50 μL/well, and the plate was sealed. The GF/B UniFilter plate was allowed to stand overnight at room temperature. […] The non-specific binding was calculated from the radioactivity of [^3H]-Mesulergine in the presence of […] Serotonin HCl with the unlabeled ligand, and the total binding was calculated from the radioactivity of [^3H]-Mesulergine in the absence of the compound according to the present invention (Vehicle). Finally, the Ki value was calculated from the dose-response curve.
(§5) (The binding activity of the compound according to the present invention was calculated from the following binding inhibition rate (%).)
(§6) Inhibition rate (%)=[1−(c−a)/(b−a)]×100 • a; mean cpm of non-specific binding • b; mean cpm of total binding • c; cpm in the presence of the test compound

[2] = target: human recombinant 5-HT2A receptor (Homo sapiens (Human), UniProt P28223); test: 5-HT2A receptor binding inhibition test ([3H]-Ketanserin); details: Jump-In HEK cell membrane
Sequence of human recombinant 5-HT2A receptor (P28223 whole entry): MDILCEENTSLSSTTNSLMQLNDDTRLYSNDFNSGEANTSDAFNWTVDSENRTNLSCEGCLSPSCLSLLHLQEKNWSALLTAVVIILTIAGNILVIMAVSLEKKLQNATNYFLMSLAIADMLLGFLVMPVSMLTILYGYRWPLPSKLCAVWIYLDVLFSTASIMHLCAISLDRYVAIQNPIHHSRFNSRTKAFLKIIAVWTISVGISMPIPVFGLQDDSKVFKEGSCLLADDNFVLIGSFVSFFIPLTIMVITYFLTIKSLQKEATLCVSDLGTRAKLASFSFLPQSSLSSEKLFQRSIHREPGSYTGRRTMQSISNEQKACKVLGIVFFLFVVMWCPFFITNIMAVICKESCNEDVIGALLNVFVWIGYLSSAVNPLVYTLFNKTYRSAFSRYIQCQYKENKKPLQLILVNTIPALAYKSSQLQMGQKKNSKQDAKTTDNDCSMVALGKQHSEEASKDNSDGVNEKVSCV
Method: Test Example 1: 5-HT2A Receptor Binding Inhibition Test
as §1
Cell membrane: Jump-In HEK cell membrane (expressing human recombinant 5-HT2A receptor)
as §2
Radioactive ligand: [^3H]-Ketanserin around Kd value calculated by the following method
as §3
The Kd value was calculated when the lot of cell membrane was changed. In advance, 0.5 μL of a 1 mmol/L compound for non-specific binding calculation dissolved in DMSO or DMSO was dispensed into a microplate, and the cell membrane was diluted with an Assay buffer. The radioactive ligand solution was serially diluted and the count was confirmed with a liquid scintillator. Assay buffer containing diluted cell membrane was dispensed into a microplate at 50 μL/well. Then, the radioactive ligand solution was dispensed into a microplate at 50 μL/well, and the plate was sealed. It was allowed to stand at room temperature (25° C.) for 1.5 hours. During this period, 50 mmol/L Tris-HCl (pH 7.4) was dispensed into a GF/B UniFilter plate at 50 μL/well and allowed to stand at 4° C. for 1 hour or longer. After that, filtration was performed with Cell harvester (PerkinElmer). The radioactive ligand solution was dispensed into an empty well of the GF/B UniFilter plate at 10 μL/well. After the GF/B UniFilter plate was dried at room temperature, MicroScinti 20 was dispensed into the GF/B UniFilter plate at 50 μL/well, and the plate was sealed. The GF/B UniFilter plate was allowed to stand overnight at room temperature. The radioactivity of [^3H]-Ketanserin bound to the 5-HT2A receptor was measured using Microbeta2 (PerkinElmer) at a measurement time of 1 min/well. The Saturation curve was drawn from the measured value, and the Kd value was calculated from the slope of the Scatchard Plot.
as §4
In advance, 0.5 μL of the compound solution dissolved in DMSO was dispensed into a microplate, and the cell membrane and the hot ligand were diluted with Assay buffer, respectively. Then, the Assay buffer containing the diluted cell membrane was dispensed into a microplate at 50 μL/well. Then, the radioactive ligand solution was dispensed into a microplate at 50 μL/well, and the plate was sealed. Then, it was allowed to stand at room temperature (25° C.) for 1.5 hours. During this period, 50 mmol/L Tris-HCl (pH 7.4) was dispensed into a GF/B UniFilter plate at 50 μL/well and allowed to stand at 4° C. for 1 hour or longer. After that, filtration was performed with Cell harvester (PerkinElmer). After the GF/B UniFilter plate was dried at room temperature, MicroScinti 20 was dispensed into the GF/B UniFilter plate at 50 μL/well, and the plate was sealed. The GF/B UniFilter plate was allowed to stand overnight at room temperature. The radioactivity of [^3H]-Ketanserin bound to the 5-HT2A receptor was measured using Microbeta2 (PerkinElmer) at a measurement time of 1 min/well. The non-specific binding was calculated from the radioactivity of [^3H]-Ketanserin in the presence of […] Serotonin HCl with the unlabeled ligand, and the total binding was calculated from the radioactivity of [^3H]-Ketanserin in the absence of the compound according to the present invention (Vehicle). Finally, the Ki value was calculated from the dose-response curve.
as §5, §6

[3] = read-out: human serotonin 5-HT2C receptor binding inhibitory activity, Ki value
[4] = read-out: human serotonin 5-HT2A receptor binding activity, Ki value

Sequence of human recombinant 5-HT2C receptor (P28335 33-458): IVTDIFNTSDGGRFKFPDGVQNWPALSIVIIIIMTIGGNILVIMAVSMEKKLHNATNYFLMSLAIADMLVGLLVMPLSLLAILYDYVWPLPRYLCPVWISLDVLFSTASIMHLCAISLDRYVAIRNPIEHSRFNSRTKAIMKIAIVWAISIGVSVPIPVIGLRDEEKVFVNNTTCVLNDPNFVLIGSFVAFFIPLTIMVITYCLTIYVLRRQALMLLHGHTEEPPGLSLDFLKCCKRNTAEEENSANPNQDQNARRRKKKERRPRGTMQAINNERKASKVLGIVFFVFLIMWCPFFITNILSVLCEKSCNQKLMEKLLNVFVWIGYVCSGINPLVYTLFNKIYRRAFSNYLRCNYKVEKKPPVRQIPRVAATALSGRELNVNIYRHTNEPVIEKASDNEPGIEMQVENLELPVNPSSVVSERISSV

SMILES	Ki ([1]; read-out: h-5-HT2C Ki)	Ki ([2]; read-out: h-5-HT2A Ki)	Ki [1, 3]	Ki [2, 4]
CCCc1ccc(CN(Cc2coc(C)n2)C(=O)NC2CCN(C)CC2)cc1 [Compound I-108]	< 10 nM	< 10 nM	–	–
CCCCOc1ccc(CN(Cc2coc(C(F)F)n2)C(=O)NC2CCN(C)CC2)cc1 [Compound I-109]	–	–	0.463 nM	0.43 nM
CCCCOc1ccc(CN(Cc2coc(C3CC3)n2)C(=O)NC2CCN(C)CC2)cc1 [Compound I-110]	–	–	0.301 nM	0.537 nM
CN1CCC(NC(=O)N(Cc2ccc(OCC(F)(F)F)cc2)Cc2coc(C3CC3)n2)CC1 [Compound I-111]	< 10 nM	< 10 nM	–	–
CN1CCC(NC(=O)N(Cc2coc(C3CC3)n2)Cc2ccc(OCC(F)(F)F)cc2F)CC1 [Compound I-112]	< 10 nM	< 10 nM	–	–
CCCCOc1ccc(CN(Cc2coc(C)n2)C(=O)NC2CCN(C)CC2)c(F)c1 [Compound I-113]	< 10 nM	< 10 nM	–	–
CCCc1ccc(CN(Cc2coc(C)n2)C(=O)NC2CCN(C)CC2)c(F)c1 [Compound I-114]	< 10 nM	< 10 nM	–	–
Cc1nc(CN(Cc2ccc(OCC(C)C)c(F)c2)C(=O)NC2CCN(C)CC2)co1 [Compound I-115]	< 10 nM	< 10 nM	–	–
CC(C)COc1ccc(CN(Cc2cnn(C)n2)C(=O)NC2CCN(C)CC2)cc1F [Compound I-116]	< 10 nM	< 10 nM	–	–
Cc1nc(CN(Cc2ccc(OCC(C)C)cc2F)C(=O)NC2CCN(C)CC2)co1 [Compound I-117]	–	–	0.315 nM	0.82 nM
CC(C)COc1ccc(CN(Cc2cnn(C)n2)C(=O)NC2CCN(C)CC2)c(F)c1 [Compound I-118]	–	–	0.371 nM	1.03 nM
CCCCOc1ccc(CN(Cc2coc(CF)n2)C(=O)NC2CCN(C)CC2)cc1 [Compound I-119]	< 10 nM	< 10 nM	–	–
CC(C)COc1ccc(CN(Cc2coc(CF)n2)C(=O)NC2CCN(C)CC2)cc1 [Compound I-120]	< 10 nM	< 10 nM	–	–
Cc1nc(CN(Cc2ccc(OCC(F)(F)C(F)(F)F)cc2F)C(=O)NC2CCN(C)CC2)co1 [Compound I-121]	< 10 nM	< 10 nM	–	–
CN1CCC(NC(=O)N(Cc2cnn(C)n2)Cc2ccc(OCC(F)(F)C(F)(F)F)cc2F)CC1 [Compound I-122]	–	–	0.281 nM	0.824 nM
CCCCOc1ccc(CN(Cc2coc(C)n2)C(=O)CC2CCN(C)CC2)cc1F [Compound I-123]	–	–	1.39 nM	0.506 nM
CCCCOc1ccc(CN(Cc2coc(C)n2)C(=O)CN2CCN(C)CC2)cc1F [Compound I-126]	–	–	6.25 nM	1.24 nM
CCCCOc1ccc(CN(Cc2coc(C)n2)C(=O)CCC2CCNCC2)cc1F [Compound I-127]	100 to 5000 nM	10 to 100 nM	–	–

— patent US20240083872A1, “CYCLIC AMINE DERIVATIVES HAVING SEROTONIN RECEPTOR BINDING ACTIVITY” (Shionogi & Co., Ltd., priority 2020, published 2024)
